Data published in patent US8399522B2, “3.2.1-bicyclo-octane compounds” (International Flavors & Fragrances Inc, priority 2010, dated 2013).

Experiments:
[1] = Sweat malodor coverage, jar test ranked by sensory panel; set-up: species or system human; conditions: compound 10% in solvent; for Sweat Malodor, mean rank of malodor coverage: 8 oz jar, 1 hour equilibration, 15-18 panelists, scale 1 (No Coverage), 3 (Moderate Coverage), 5 (Excellent Coverage)
Experimental: (§1) Establishment of Malodor Models: It is known that the perspirative malodors of human body, particularly sweat, are associated with the production of several unpleasant smelling organic acids, particularly isovaleric acid (“IVA”). The commercial sample of this malodorous material (commercially available at Sigma-Aldrich Inc.) was thus used as a model compound to assess the effectiveness of sweat malodor counteractants. The mold/mildew malodor model was prepared based on applicant's proprietary formulations for assessing the effectiveness of mold/mildew malodor counteractants.
(§2) Preparation of Test Samples: Two aluminum dishes were placed in an 8 oz glass jar. A malodor material was pipetted into one aluminum dish, and a compound of the present invention diluted in a solvent (10%) or a solvent alone control was pipetted into the other aluminum dish. The jar was then capped and the samples were allowed to equilibrate for one hour before the testing.
(§3) Testing Procedure: Test samples were presented in a blind and random order to 15-18 internal panelists (consisting of men/women with an age range of 25 to 55). However, different odor samples were arranged in an alternative order (for example, sweat, mold/mildew, sweat, mold/mildew, and etc.).
(§4) The panelists were instructed to take the steps of i) sniff jars containing only the malodor materials for familiarization prior to the testing; ii) uncap a jar; iii) place their noses at a distance of about 3-4 inches above the opening; iv) take short sniffs for 3 seconds; and v) provide a rank of the malodor coverage using an intensity scale of 1 to 5, where 1 represents “No Coverage”, 3 represents “Moderate Coverage”, and 5 represents “Excellent Coverage”. The means for each sample was then calculated.

[2] = Mold/mildew malodor coverage, jar test ranked by sensory panel; set-up: species or system human; conditions: compound 10% in solvent; for Mold/Mildew Malodor, mean rank of malodor coverage: 8 oz jar, 1 hour equilibration, 15-18 panelists, scale 1 (No Coverage), 3 (Moderate Coverage), 5 (Excellent Coverage)
Experimental: as §1, §2, §3, §4

Vapor pressure = assay type: physicochemical

Row | SMILES | counteracting sweat malodor (in words) [1] | Sweat Malodor, mean rank of malodor coverage [1] | counteracting mold/mildew malodor (in words) [2] | Mold/Mildew Malodor, mean rank of malodor coverage [2] | Vapor Pressure (Vapor pressure)
1 | CC12CCC(C1)C1(C)OC1C2 (centres unmarked) [Structure 1, 2,6-dimethyl-3-oxa-tricyclo[4.2.1.0*2,4*]nonane] | effective | 3.59 | effective | 3.87 | 2186 µg/L
2 | CC1C(=O)CC2(C)CCC1C2 (centres unmarked) [Structure 2, 1,4-dimethyl-bicyclo[3.2.1]octan-3-one] | effective | 3.57 | effective | 3.63 | 4305 µg/L
3 | CC1CC2(C)C3CCC(C)(C3)CC2O1 (centres unmarked) [Structure 4, 2,4,8-trimethyl-5-oxa-tricyclo [6.2.1.0*2,6*]undecane] | effective | 3.11 | effective | 2.79 | 1045 µg/L
4 | CC1C2CCC(C)(C2)CC12OCCO2 (centres unmarked) [Structure 5, 1,4-dimethyl-bicyclo[3.2.1]octan-3-dioxolane] | effective | 2.92 | effective | 2.39 | 1281 µg/L
